Source: paper PMC8179049 (Chemical Science, 2020)
Where “and” joins values, the source holds several entries; their conditions need not be identical. Equal values may be shown once. Read-outs that look alike come from different tables or passages of the source.

Experiments:
[1] = biological target: T1, human AspH (His6-AspH315-758) (Homo sapiens, UniProt Q12797); assay: SPE-MS AspH inhibition assay; type: biochemical; conditions: mean ± SD, n = 3
T1 construct: N-Terminally His6-tagged human AspH315-758 (His6-AspH315-758) was produced in Escherichia coli BL21 (DE3); made in house; host or cells: Escherichia coli BL21 (DE3), pET-28a(+) vector
T1 sequence (Q12797 315-758): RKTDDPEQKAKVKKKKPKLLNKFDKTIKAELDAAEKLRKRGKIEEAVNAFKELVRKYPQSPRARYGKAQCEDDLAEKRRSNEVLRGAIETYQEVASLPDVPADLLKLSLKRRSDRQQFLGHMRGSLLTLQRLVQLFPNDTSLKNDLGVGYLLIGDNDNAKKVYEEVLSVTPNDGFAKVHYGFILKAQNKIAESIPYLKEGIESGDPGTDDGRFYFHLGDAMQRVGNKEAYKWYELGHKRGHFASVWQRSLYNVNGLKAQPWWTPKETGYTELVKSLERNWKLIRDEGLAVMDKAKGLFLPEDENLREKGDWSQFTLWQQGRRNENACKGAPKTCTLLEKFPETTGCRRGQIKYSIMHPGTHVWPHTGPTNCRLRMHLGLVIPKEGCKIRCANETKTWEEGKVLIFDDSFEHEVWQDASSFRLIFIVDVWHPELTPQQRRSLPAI
Experimental: 6. Recombinant AspH production and purification
N-Terminally His6-tagged human AspH315-758 (His6-AspH315-758) was produced in Escherichia coli BL21 (DE3) cells using a pET-28a(+) vector and purified by Ni(II)-affinity chromatography (HisTrap HP column, GE Healthcare; 1 mL/min flow rate) and size-exclusion chromatography (HiLoad 26/60 Superdex 75 pg 300 mL column; 1 mL/min) using an ÄKTA pure machine (GE Healthcare) as previously reported.1,4 AspH was >95% pure by SDS-PAGE and MS analysis and had the anticipated mass (calculated for His6-AspH315-758: 54519 Da, found: 54519 Da).1 Purified AspH was stored in 50 mM HEPES buffer (pH 7.5, 150 mM NaCl) at a concentration of 125 μM at -78 °C; fresh aliquots were used for all AspH assays.
7. AspH substrate synthesis
AspH substrates were designed based on the sequence of EGFD1 of human coagulation factor X (hFX amino acids 86-124), which is a reported cellular AspH substrate.2 All substrates were prepared with a C-terminal amide.
The hFX-EGFD186-124-4Ser peptide (hFX amino acids 86-124; Supporting Figure S1c),1 used for crystallography experiments, was synthesized by solid phase peptide synthesis (SPPS) and purified by GL Biochem (Shanghai) Ltd (Shanghai, China). The thioether linked cyclic peptide hFX-CP101-119 (hFX amino acids 101-119; Supporting
Figure S1d), which was used as substrate in AspH SPE-MS assays,4 was synthesized by an intramolecular thioetherification cyclization reaction from the corresponding linear peptide (D-Ala replacing Cys101hFX and Ser replacing Cys112hFX) which was obtained by microwave-assisted solid phase peptide synthesis using the Fmoc-protection strategy as described.4
8. AspH inhibition assays […]
water; ammonium iron(II) sulfate hexahydrate, FAS, (NH 4)2Fe(SO4)2·6H2O: 400 mM in 20 mM HCl diluted to 1 mM in Milli-Q® Ultrapure water) were freshly prepared each day from commercially sourced solids (Sigma […]
(Greiner) in an approximately three-fold and 11-point dilution series (100 μM top concentration) using an ECHO 550 acoustic dispenser (Labcyte). DMSO and 2,4 -PDCA were used as negative and positive controls , respectively .
The final DMSO concentration was kept constant at 0.5%v/v throughout all experiments (using the DMSO backfill option of the acoustic dispenser). Each reaction was performed in technical duplicates in adjacent wells of the assay plates; additionally, assays were performed in three independent technical duplicates on different days using different DMSO inhibitor solutions. […]
dispensed across the inhibitor-containing 384-well assay plates with a multidrop dispenser (ThermoFischer Scientific) at 20°C under an ambient atmosphere. The plates were subsequently centrifuged (1000 rpm, 30 s) and incubated for 15 minutes at 20°C. The Substrate Mixture (25 μL/well), containing 2.0 μM hFX-CP101-119, 200 μM […]
Note: The multidrop dispenser ensured proper mixing of the Enzyme and the Substrate Mixtures which was essential for assay reproducibility. The plates were centrifuged (1000 rpm, 30 s) and af ter incubating for 7 minutes, […]
centrifuged (1000 rpm, 60 s) and analysed by MS.
The mass spectrometer parameters were:
Data were exported into Microsoft
The standard deviation (SD) of three
Z’-factors were calculated
9. Determination of kinetic parameters […]
in 50 mM HEPES buffer (pH 7.5).

human AspH = biological target: T2, human AspH (Homo sapiens, UniProt Q12797); assay: SPE-MS AspH turnover assay in the absence of 2OG (2OG derivative as cosubstrate); conditions: 330 μM 2OG or 2OG derivative, 0.1 μM AspH, 2 μM hFX-CP101-119, 50 μM FAS, t = 15 min;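 further: percent conversion = hydroxylated cyclic peptide peak area relative to summed substrate plus product areas, taken from +2 charge state ion chromatograms by solid phase extraction MS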
T2 sequence (Q12797 315-758): T1 sequence (Q12797 315-758)
Experimental: AspH assays were performed as described in the ESI, ^† data are shown as the mean of three independent runs (n = 3; mean ± standard deviation, SD).
AspH assays were performed as described in Section 9 of the Supporting Information using 0.1 μM AspH, 2 μM
a positive control in the SPE-MS AspH turnover assays (Entry 1).
dependent conversion of the AspH substrate hFX-CP101-119 (Supporting Figure S1d). %-Substrate conversion is
AspH assays were performed as
described in Section 9 of the Supporting Information using 0.1 μM AspH, 2 μM hFX-CP101-119, 50 μM FAS, 330
AspH inhibition assays were incubated for 6 rather than 7 minutes before the enzyme reaction was
stopped by the addition of 10%v/v aqueous formic acid.
MS-analyses were performed using a RapidFire RF 365 high-throughput sampling robot (Agilent) attached to an
iFunnel Agilent 6550 accurate mass quadrupole time-of-flight (Q-TOF) mass spectrometer operated in the positive
ionization mode. Assay samples were aspirated under vacuum for 0.4 s and loaded onto a C4 solid phase extraction (SPE) cartridge. After loading, the C4 SPE cartridge was washed with 0.1%v/v aqueous formic acid to remove
non-volatile buffer salts (5 s, 1.5 mL/min). The peptide was eluted from the SPE cartridge with 0.1%v/v aqueous
formic acid in 85/15v/v acetonitrile/water into the mass spectrometer (5 s, 1.25 mL/min) and the SPE cartridge re-
equilibrated with 0.1%v/v aqueous formic acid (1 s, 1.25 mL/min). The mass spectrometer parameters were:
capillary voltage (4000 V), nozzle voltage (1000 V), fragmentor voltage (365 V), gas temperature (280°C), gas
flow (13 L/min), sheath gas temperature (350°C), sheath gas flow (12 L/min). The m/z +2 charge states of the
cyclic peptide (substrate) and the hydroxylated cyclic peptide (product) were used to extract ion chromatogram
data, peak areas were integrated using RapidFire Integrator software (Agilent). Data were exported into Microsoft
Excel and used to calculate the % conversion of the hydroxylation reaction using the equation: % conversion =
100 x (integral product cyclic peptide) / (integral substrate cyclic peptide + integral product cyclic peptide).
Normalized dose-response curves (2,4-PDCA and DMSO controls) were obtained from the raw data by non-linear
regression (GraphPad Prism 5) and used to determine IC50-values. The standard deviation (SD) of three
independent IC50 determinations (n = 3) was calculated using GraphPad Prism 5. Z’-factors were calculated
according to the cited literature using Microsoft Excel (Supporting Figure S3).14

[2] = 50 nM His6-AspH315–758, 1.0 μM hFX-CP101–119, 3 μM 2OG
[3] = 50 nM His6-AspH315–758, 1.0 μM hFX-CP101–119, 3 μM 2OG, read-out: IC50 (inhibition of AspH)

Structure (SMILES) | IC50 (inhibition of AspH) [1, 2] | AspH-catalyzed substrate conversion (hydroxylation of hFX-CP101-119) (human AspH) | IC50 [1, 3] | melting point | also measured
O=C(O)C(=O)c1ccc(C(=O)O)c(Br)c1 [compound 45] | Inactive | ~8% | – | – | –
O=C(O)C(=O)c1cccc(C(=O)O)c1 [compound 40, 3-carboxyphenylglyoxylic acid] | did not inhibit | < 1% | – | – | IC50 (inhibition of AspH) ([1]; 50 nM His6-AspH315–758, 1.0 μM hFX-CP101–119, 3 μM 2OG, listed as C00009): Inactive
O=C(O)C(=O)c1ccccc1C(=O)O [compound 39] | did not inhibit | < 1% | – | – | IC50 (inhibition of AspH) ([1]; 50 nM His6-AspH315–758, 1.0 μM hFX-CP101–119, 3 μM 2OG, listed as C00006): Inactive
O=C(O)C(=O)C1(C(=O)O)CC1 [compound 48] | – | < 1% | ~3.3 µM and 3.3 µM | – | –
O=C(O)CC(Cc1ccccc1)C(=O)C(=O)O (stereo not shown) [compound 21] | – | < 1% | ~1.6 µM and 1.6 µM | > 250 °C (dec.) | –
COc1ccc(CC(CC(=O)O)C(=O)C(=O)O)cc1 (stereo not shown) [compound 24] | – | < 1% | 3.6 ± 1.4 µM | > 260 °C (dec.) | –
O=C(O)C(=O)CC(Cc1ccc2ccccc2c1)C(=O)O (stereo not shown) [compound 33] | – | < 1% | 0.17 ± 0.03 µM | > 220 °C (dec.) | IC50 ([1]; IC50 at 200 μM 2OG (ESI Table S1), assay concentration of 200 μM 2OG): 2.5 ± 0.4 µM; IC50 ([1]; IC50 at 400 μM 2OG (ESI Table S1), assay concentration of 400 μM 2OG): 3.1 ± 0.3 µM; IC50 ([1]; IC50 at 600 μM 2OG (ESI Table S1), assay concentration of 600 μM (0.6 mM) 2OG): 5.6 µM and ~5.6 µM
Cc1cc(C(=O)O)ccc1C(=O)C(=O)O [compound 46] | Inactive | ~5% | – | > 320 °C (dec.) | –
CC1(C)C(C(=O)O)C1C(=O)C(=O)O (stereo not shown) [compound 35] | – | < 1% | ~5.2 µM and 5.2 µM | – | –
CC(CC(=O)C(=O)O)C(=O)O (stereo not shown) [compound 26, 4-methyl-2OG] | did not inhibit | ~10% | – | – | IC50 (inhibition of AspH) ([1]; 50 nM His6-AspH315–758, 1.0 μM hFX-CP101–119, 3 μM 2OG, listed as C00031): Inactive
O=C(O)C(=O)C12CCC(C(=O)O)(CC1)CC2 [compound 47] | did not inhibit | ~8% | – | > 300 °C (dec.) | IC50 (inhibition of AspH) ([1]; 50 nM His6-AspH315–758, 1.0 μM hFX-CP101–119, 3 μM 2OG, listed as C00030): Inactive
O=C(O)C(=O)c1ccc(C(=O)O)s1 [compound 38] | – | ~15% | ~12.9 µM and 12.9 µM | > 285 °C (dec.) | –
Cc1cc(C)cc(CC(CC(=O)O)C(=O)C(=O)O)c1 (stereo not shown) [compound 25] | – | < 1% | 4.7 ± 0.2 µM | – | –
CC(C)(C)CCC(CC(=O)O)C(=O)C(=O)O (stereo not shown) [compound 19] | – | < 1% | ~48.2 µM and 48.2 µM | – | –
CC(C)(NC(=O)C(=O)O)C(=O)O [compound 49, N-oxalyl-α-methylalanine] | – | – | ~2.9 µM | – | IC50 ([1]; 50 nM His6-AspH315-758, 1.0 μM hFX-CP101-119, read-out: IC50 (ESI Fig. S4)): 2.9 ± 1.3 µM
